Data reported in patent US20240122930A1, “INTEGRIN INHIBITORS AND USES THEREOF IN COMBINATION WITH OTHER AGENTS” (Pliant Therapeutics, Inc., priority 2022, published 2024).
Read-outs that look alike come from different tables or passages of the source.

System: participants with idiopathic pulmonary fibrosis (IPF)
[1] = 40 mg (n = 22), 12 weeks, listed as Cmpd 5
[2] = 80 mg (n = 23), 12 weeks, listed as Cmpd 5
[3] = 160 mg (n = 22), 12 weeks, listed as Cmpd 5
[4] = 320 mg (n = 22), treatment up to 40 weeks

Text: The groups were stratified for the use of nintedanib or pirfenidone. The groups were screened 28 days before the Day 1 of the study. At Day 1, baseline values were collected. During week 12, the subjects received the last dose, and the study was ended at week 14. Primary and secondary endpoints of the study included safety, tolerability, and PK. Exploratory endpoints included change in FVC over 12 weeks; High Resolution CT-based Quantitative Lung Fibrosis (QLF) imaging; patient-reported outcome (PRO): VAS-cough severity; and effect on selected biomarkers.
The groups were stratified for the use of nintedanib or pirfenidone. The screening was done 28 days before Day 1 and the baseline was measured on Day 1. The last dose was on Week 12, and the end of study was on Week 14. The primary and secondary endpoints include safety, tolerability, and PK. Exploratory Endpoints include change in Forced Vital Capacity (FVC) over 12 weeks, High Resolution CT-based Quantitative Lung Fibrosis (QLF) imaging, and effect on selected biomarkers.
The groups were stratified for the use of nintedanib or pirfenidone. The groups were screened 28 days before the Day 1 of the study. At Day 1, baseline values were collected. The study was continued up to Week 48. The treatment duration per protocol is at least 24 weeks and at most 48 weeks. For the study, the primary and secondary endpoints evaluated in the trial were safety, tolerability, and pharmacokinetics. The exploratory endpoints evaluated included the change in FVC over 12 and 24 weeks; high Resolution CT-based Quantitative Lung Fibrosis (QLF) imaging; patient-reported cough severity; and effect on selected biomarkers.

COCCN(CCCCc1ccc2c(n1)NCCC2)CC[C@H](Nc1ncnc2ccccc12)C(=O)O [Compound 5, (S)-4-((2-methoxyethyl) (4-(5,6,7,8-tetrahydro-1,8-naphthyridin-2-yl)butyl)amino)-2-(quinazolin-4-ylamino) butanoic acid]
Any AEs, % of participants (40 mg (n = 22), 12 weeks): (72.7) %
Any AEs, participants reporting (40 mg (n = 22), 12 weeks): 16 n
Serious TEAE (40 mg (n = 22), 12 weeks): 1 n
Serious TEAE related to study drug (40 mg (n = 22), 12 weeks): 0 n
Serious TEAE, % of participants (40 mg (n = 22), 12 weeks): (4.5) %
TEAE Diarrhea (any causality), % of participants (40 mg (n = 22), 12 weeks): (9.1) %
TEAE Diarrhea (any causality), participants reporting (40 mg (n = 22), 12 weeks): 2 n
TEAE Diarrhea related to study drug, % of participants (40 mg (n = 22), 12 weeks): (4.5) %
TEAE Diarrhea related to study drug, participants reporting (40 mg (n = 22), 12 weeks): 1 n
TEAE Leading to Death (40 mg (n = 22), 12 weeks): 0 n
TEAE Leading to Early Termination from Study (40 mg (n = 22), 12 weeks): 0 n
TEAE Leading to Interruption of Study Drug (40 mg (n = 22), 12 weeks): 0 n
TEAE Leading to Withdrawal of Study Drug (40 mg (n = 22), 12 weeks): 0 n
TEAE of CTCAE Grade 3 or Higher (40 mg (n = 22), 12 weeks): 2 n
TEAE of CTCAE Grade 3 or Higher related to study drug (40 mg (n = 22), 12 weeks): 0 n
TEAE of CTCAE Grade 3 or Higher, % of participants (40 mg (n = 22), 12 weeks): (9.1) %
TEAE related to study drug (40 mg (n = 22), 12 weeks): 4 n
TEAE related to study drug, % of participants (40 mg (n = 22), 12 weeks): (18.2) %
TEAE, % of participants (40 mg (n = 22), 12 weeks): (72.7) %
TEAE, participants reporting (40 mg (n = 22), 12 weeks): 16 n
Any AEs, % of participants [1]: 72.7%
Serious TEAE, % of participants [1]: 4.5%
TEAE Diarrhea (any causality), % of participants [1]: 9.1%
TEAE Diarrhea related to study drug, % of participants [1]: 4.5%
TEAE of CTCAE Grade 3 or Higher, % of participants [1]: 9.1%
TEAE related to study drug, % of participants [1]: 18.2%
TEAE, % of participants [1]: 72.7%
Any AEs, % of participants (80 mg (n = 23), 12 weeks): (65.2) %
Any AEs, participants reporting (80 mg (n = 23), 12 weeks): 15 n
Serious TEAE (80 mg (n = 23), 12 weeks): 0 n
Serious TEAE related to study drug (80 mg (n = 23), 12 weeks): 0 n
TEAE Diarrhea (any causality), % of participants (80 mg (n = 23), 12 weeks): (21.7) %
TEAE Diarrhea (any causality), participants reporting (80 mg (n = 23), 12 weeks): 5 n
TEAE Diarrhea related to study drug, % of participants (80 mg (n = 23), 12 weeks): (13.0) %
TEAE Diarrhea related to study drug, participants reporting (80 mg (n = 23), 12 weeks): 3 n
TEAE Leading to Death (80 mg (n = 23), 12 weeks): 0 n
TEAE Leading to Early Termination from Study (80 mg (n = 23), 12 weeks): 0 n
TEAE Leading to Interruption of Study Drug (80 mg (n = 23), 12 weeks): 0 n
TEAE Leading to Withdrawal of Study Drug (80 mg (n = 23), 12 weeks): 0 n
TEAE of CTCAE Grade 3 or Higher (80 mg (n = 23), 12 weeks): 0 n
TEAE of CTCAE Grade 3 or Higher related to study drug (80 mg (n = 23), 12 weeks): 0 n
TEAE related to study drug (80 mg (n = 23), 12 weeks): 7 n
TEAE related to study drug, % of participants (80 mg (n = 23), 12 weeks): (30.4) %
TEAE, % of participants (80 mg (n = 23), 12 weeks): (65.2) %
TEAE, participants reporting (80 mg (n = 23), 12 weeks): 15 n
Any AEs, % of participants [2]: 65.2%
TEAE Diarrhea (any causality), % of participants [2]: 21.7%
TEAE Diarrhea related to study drug, % of participants [2]: 13.0%
TEAE related to study drug, % of participants [2]: 30.4%
TEAE, % of participants [2]: 65.2%
Any AEs, % of participants (160 mg (n = 22), 12 weeks): (68.1) %
Any AEs, participants reporting (160 mg (n = 22), 12 weeks): 15 n
Serious TEAE (160 mg (n = 22), 12 weeks): 2 n
Serious TEAE related to study drug (160 mg (n = 22), 12 weeks): 0 n
Serious TEAE, % of participants (160 mg (n = 22), 12 weeks): (9.1) %
TEAE Diarrhea (any causality), % of participants (160 mg (n = 22), 12 weeks): (22.7) %
TEAE Diarrhea (any causality), participants reporting (160 mg (n = 22), 12 weeks): 5 n
TEAE Diarrhea related to study drug, % of participants (160 mg (n = 22), 12 weeks): (18.2) %
TEAE Diarrhea related to study drug, participants reporting (160 mg (n = 22), 12 weeks): 4 n
TEAE Leading to Death (160 mg (n = 22), 12 weeks): 0 n
TEAE Leading to Early Termination from Study (160 mg (n = 22), 12 weeks): 0 n
TEAE Leading to Interruption of Study Drug (160 mg (n = 22), 12 weeks): 1 n
TEAE Leading to Interruption of Study Drug, % of participants (160 mg (n = 22), 12 weeks): (4.5) %
TEAE Leading to Withdrawal of Study Drug (160 mg (n = 22), 12 weeks): 0 n
TEAE of CTCAE Grade 3 or Higher (160 mg (n = 22), 12 weeks): 2 n
TEAE of CTCAE Grade 3 or Higher related to study drug (160 mg (n = 22), 12 weeks): 1 n
TEAE of CTCAE Grade 3 or Higher related to study drug, % of participants (160 mg (n = 22), 12 weeks): (4.5) %
TEAE of CTCAE Grade 3 or Higher, % of participants (160 mg (n = 22), 12 weeks): (9.1) %
TEAE related to study drug (160 mg (n = 22), 12 weeks): 4 n
TEAE related to study drug, % of participants (160 mg (n = 22), 12 weeks): (18.2) %
TEAE, % of participants (160 mg (n = 22), 12 weeks): (63.6) %
TEAE, participants reporting (160 mg (n = 22), 12 weeks): 14 n
Any AEs, % of participants [3]: 68.2%
Serious TEAE, % of participants [3]: 9.1%
TEAE Diarrhea (any causality), % of participants [3]: 22.7%
TEAE Diarrhea related to study drug, % of participants [3]: 18.2%
TEAE Leading to Interruption of Study Drug, % of participants [3]: 4.5%
TEAE of CTCAE Grade 3 or Higher related to study drug, % of participants [3]: 4.5%
TEAE of CTCAE Grade 3 or Higher, % of participants [3]: 9.1%
TEAE related to study drug, % of participants [3]: 18.2%
TEAE, % of participants [3]: 63.6%
Any AEs, % of participants (320 mg (n = 21), 12 weeks): 85.7%
Any AEs, participants reporting (320 mg (n = 21), 12 weeks): 18 n
Serious TEAE (320 mg (n = 21), 12 weeks): 1 n
Serious TEAE related to study drug (320 mg (n = 21), 12 weeks): 0 n
Serious TEAE, % of participants (320 mg (n = 21), 12 weeks): 4.8%
TEAE Diarrhea (any causality), % of participants (320 mg (n = 21), 12 weeks): 14.3%
TEAE Diarrhea (any causality), participants reporting (320 mg (n = 21), 12 weeks): 3 n
TEAE Diarrhea related to study drug, % of participants (320 mg (n = 21), 12 weeks): 9.5%
TEAE Diarrhea related to study drug, participants reporting (320 mg (n = 21), 12 weeks): 2 n
TEAE Leading to Death (320 mg (n = 21), 12 weeks): 1 n
TEAE Leading to Death, % of participants (320 mg (n = 21), 12 weeks): 4.8%
TEAE Leading to Early Termination from Study (320 mg (n = 21), 12 weeks): 3 n
TEAE Leading to Early Termination from Study, % of participants (320 mg (n = 21), 12 weeks): 14.3%
TEAE Leading to Interruption of Study Drug (320 mg (n = 21), 12 weeks): 1 n
TEAE Leading to Interruption of Study Drug, % of participants (320 mg (n = 21), 12 weeks): 4.8%
TEAE Leading to Withdrawal of Study Drug (320 mg (n = 21), 12 weeks): 3 n
TEAE Leading to Withdrawal of Study Drug, % of participants (320 mg (n = 21), 12 weeks): 14.3%
TEAE of CTCAE Grade 3 or Higher (320 mg (n = 21), 12 weeks): 2 n
TEAE of CTCAE Grade 3 or Higher related to study drug (320 mg (n = 21), 12 weeks): 0 n
TEAE of CTCAE Grade 3 or Higher, % of participants (320 mg (n = 21), 12 weeks): 9.5%
TEAE related to study drug (320 mg (n = 21), 12 weeks): 4 n
TEAE related to study drug, % of participants (320 mg (n = 21), 12 weeks): 19.0%
TEAE, % of participants (320 mg (n = 21), 12 weeks): 81.0%
TEAE, participants reporting (320 mg (n = 21), 12 weeks): 17 n
Serious TEAE [4]: 2 n
Serious TEAE related to study drug [4]: 0 n
Serious TEAE, % of participants [4]: (9.1) %
TEAE Cough related to study drug [4]: 0 n
TEAE Cough, % of participants [4]: (13.6) %
TEAE Cough, participants reporting [4]: 3 n
TEAE Diarrhea related to study drug [4]: 4 n
TEAE Diarrhea related to study drug, % of participants [4]: (18.2) %
TEAE Diarrhea, % of participants [4]: (31.8) %
TEAE Diarrhea, participants reporting [4]: 7 n
TEAE Dyspnoea related to study drug [4]: 0 n
TEAE Dyspnoea, % of participants [4]: (22.7) %
